The source of these data is ChEMBL document CHEMBL3797040, “Withanolides derived from Physalis peruviana (Poha) with potential anti-inflammatory activity” (Bioorg Med Chem Lett, 2016).

Data set [1] concerns RAW264.7. The experiment in a line: Inhibition of lipopolysaccharide-induced nitric oxide production in mouse RAW264.7 cells pre-incubated for 30 mins before LPS stimulation for 20 hrs by Griess reagent based assay. It counts as functional, cell-based.
In data set [2] the test system is HEK293. Briefly: Inhibition of TNFalpha-activated nuclear factor-kappa B activity (unknown origin) expressed in HEK293 cells at 50 uM incubated for 6 hrs by luciferase reporter gene based assay. It counts as cell-based. To be noted: Homo sapiens.
Data set [3] can be described thus: Toxicity against mouse RAW264.7 cells assessed as cell survival at 50 uM by SRB assay. To be noted: read-out: Survival. The format is cell-based.
Data set [4] relates to RAW264.7. Briefly: Inhibition of lipopolysaccharide-induced nitric oxide production in mouse RAW264.7 cells at 50 uM pre-incubated for 30 mins before LPS stimulation for 20 hrs by Griess reagent based assay. It counts as functional.
Data set [5] can be described thus: Toxicity against HEK293 cells assessed as cell survival at 50 uM. The format is cell-based. To be noted: human, read-out: Survival.
The nature of data set [6]: Inhibition of TNFalpha-activated nuclear factor-kappa B activity (unknown origin) expressed in HEK293 cells incubated for 6 hrs by luciferase reporter gene based assay. The format is cell-based. To be noted: Homo sapiens, HEK293, 6 h. In general terms: A reporter such as luciferase makes a cellular process visible.

pIC50: −log10 of the molar value.

As a reminder, the pIC50 is −log10 of the IC50, conventionally taken in molar units. A high value points to a low IC50. As usually defined, the inhibition is the drop in the measured response relative to a control, in per cent. On to `CC(=O)OC1C[C@H](O)CC2=CC[C@H]3[C@@H]4CC[C@H]([C@@](C)(O)[C@@H](O)C[C@@H]5COC(=O)[C@@H]5C)[C@@]4(C)CC[C@@H]3[C@]21C` (some centres undefined), for which the pIC50 is 4.93 in data set [1] and 5.96 in data set [6]. The same molecule displayed an inhibition in data set [2] of 56.1%. Moreover, the viability at 50 µM turned out to be 95.3% in data set [3] and 36.5% in data set [5]. This molecule also registered an inhibition at 50 µM in data set [4] of 84.2%.

`CC1=C(C)C(=O)O[C@@H]([C@](C)(O)[C@]2(O)CC[C@@]3(O)[C@@H]4C[C@H]5O[C@]56[C@@H](O)[C@@H](O)CC(=O)[C@]6(C)[C@H]4CC[C@]23C)C1` had a pIC50 in data set [1] of 5.11. In data set [2], this molecule returned an inhibition of 54.1%. Further, the viability at 50 µM is 100% in data set [3] and 97.1% in data set [5]. Also, in data set [4], the inhibition at 50 µM came to 86%.

The molecule `CNC(=N)NCCC[C@H](N)C(=O)O` [TILARGININE] had a pIC50 in data set [1] of 4.63.

For the molecule `CC1=C(C)C(=O)O[C@@H]([C@](C)(O)[C@]2(O)C[C@H](O)[C@@]3(O)[C@@H]4C[C@H](O)[C@@]5(O)CCCC(=O)[C@]5(C)[C@H]4CC[C@@]32C)C1`, the inhibition in data set [2] is 60.4%. For the same molecule, the viability at 50 µM came to 100% in data set [3] and 83.9% in data set [5]. For the same molecule, in data set [4], 50 µM produced 47.7% inhibition. Moreover, the pIC50 in data set [6] is 4.98.

`CC1=C(CO)C[C@H]([C@](C)(O)[C@]2(O)CC[C@@]3(O)[C@@H]4C[C@@H](O)[C@@]5(O)CC=CC(=O)[C@]5(C)[C@H]4CC[C@]23C)OC1=O`: in data set [2], the inhibition is 41%. Further, the results for the viability at 50 µM in data set [3] and in data set [5] were 100% and 81.6%, respectively. This molecule displayed an inhibition at 50 µM in data set [4] of 7.4%.

In turn, `CC(=O)OC1C[C@H](O)CC2=CC[C@H]3[C@@H]4CC[C@H]([C@@](C)(O)[C@@H](O)C[C@@H]5COC(=O)[C@@]5(C)O)[C@@]4(C)CC[C@@H]3[C@]21C` (some centres undefined) registered an inhibition in data set [2] of 64.4%. The viability at 50 µM in data set [3] stood at 100%; in data set [5] it was 73.3%. This molecule showed an inhibition at 50 µM in data set [4] of 3.7%. In data set [6], the pIC50 is 5.68.

In data set [1], `CC1=C(C)C(=O)O[C@@H]([C@](C)(O)C2=CC[C@@]3(O)[C@@H]4C[C@H]5O[C@]56[C@@H](O)CCC(=O)[C@]6(C)[C@H]4CC[C@]23C)C1` had a pIC50 of 4.84. Also, in data set [2], the inhibition amounted to 43.7%. In addition, the viability at 50 µM in data set [3] stood at 100%; in data set [5] it was 81.9%. This molecule gave an inhibition at 50 µM in data set [4] of 64.7%.

Consider `CC1=C(C)C(=O)O[C@@H]([C@](C)(O)[C@]2(O)CC[C@@]3(O)[C@@H]4[C@@H](O)[C@@H](O)[C@@]5(O)CC=CC(=O)[C@]5(C)[C@H]4CC[C@]23C)C1`, for which the pIC50 was 4.35 in data set [1] and 4.61 in data set [6]. The molecule further yielded an inhibition in data set [2] of 66.9%. Further, the viability at 50 µM in data set [3] turned out to be 90.4%; in data set [5], 98.4%. The same molecule showed an inhibition at 50 µM in data set [4] of 58.3%.

Turning to `CC1=C(C)C(=O)O[C@@H]([C@](C)(O)[C@]2(O)CC[C@@]3(O)[C@@H]4C[C@H](O)C5=CC=CC(=O)[C@]5(C)[C@H]4CC[C@]23C)C1`, the pIC50 in data set [1] was 5.62; in data set [6], 5.25. The inhibition in data set [2] turned out to be 85%. Besides, the viability at 50 µM in data set [3] came out at 79.3%; in data set [5], 100%. In addition, testing at 50 µM in data set [4] gave an inhibition of 99.2%.

For `CC1=C(C)C(=O)O[C@@H]([C@](C)(O)[C@]2(O)CC[C@@]3(O)[C@@H]4C[C@H]5O[C@]56[C@@H](O)C=CC(=O)[C@]6(C)[C@H]4CC[C@]23C)C1`, the pIC50 in data set [1] is 6.49; in data set [6], 7.40. The same molecule registered an inhibition in data set [2] of 99.5%. Besides, the viability at 50 µM in data set [3] came out at 50.1%; in data set [5], 88.6%. This molecule also displayed an inhibition at 50 µM in data set [4] of 99.4%.

In data set [2], `CC1=C(C)C(=O)O[C@@H]([C@@](C)(O)[C@]2(O)CC[C@@]3(O)[C@@H]4C[C@@H](O)[C@@]5(O)CC=CC(=O)[C@]5(C)[C@H]4CC[C@]23C)C1` displayed an inhibition of 65.8%. The viability at 50 µM turned out to be 84.1% in data set [3] and 89.6% in data set [5]. Moreover, at 50 µM the inhibition in data set [4] was 26.4%. In data set [6], this molecule showed a pIC50 of 4.51.
